Test results published in patent publication US10077268B2, “FXR agonists and methods for making and using” (Salk Institute for Biological Studies, priority 2014, dated 2018).
Entries after “also recorded” stand apart in the source; their conditions may differ. Like-named read-outs stand apart in the source and are kept apart here.

Experiments:
[1] = molecular target: T1, human TGR5 (Homo sapiens, UniProt Q8TDU6); assay: cAMP-response element luciferase reporter in HEK293 cells transfected with human TGR5; type: cell-based
T1 construct: expressed in transfected cells; host or cells: HEK293
T1 sequence (Q8TDU6 1-330): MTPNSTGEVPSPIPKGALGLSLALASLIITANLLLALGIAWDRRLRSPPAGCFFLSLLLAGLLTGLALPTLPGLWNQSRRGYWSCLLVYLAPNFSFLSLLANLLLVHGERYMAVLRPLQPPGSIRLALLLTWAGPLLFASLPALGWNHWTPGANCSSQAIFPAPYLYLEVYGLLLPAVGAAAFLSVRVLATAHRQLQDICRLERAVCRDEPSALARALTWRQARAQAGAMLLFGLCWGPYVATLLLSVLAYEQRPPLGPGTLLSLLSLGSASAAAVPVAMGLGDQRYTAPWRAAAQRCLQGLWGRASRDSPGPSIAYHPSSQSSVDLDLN
Experimental: HEK293 cells were transfected with expression vectors for cAMP-response element luciferase, β-galactosidase and human TGR5. 24 hours after transfection, cells were treated with fexaramine or INT-777 (a TGR5 agonist).

[2] = system: TGR5 null mice; assay: HFD-fed TGR5-null mice; type: in vivo; settings: 100 mg/kg/day PO 5 weeks
Experimental: HFD-fed TGR5-null mice were treated with vehicle or fexaramine (100 mg/kg os daily for 5 weeks with HFD, n=10). (A) Ileal FXR target gene expressions (B) Serum BA levels (C) Fasting glucose levels (D) Glucose tolerance test (E) Core body temperature (F) Oxygen consumption rate (G) Carbon dioxide production (H) Gene expression in BAT (I) Body weight curve (J) Body composition by MRI (K) Insulin Tolerance Test (L) Hepatic gene expression (M) Hepatic TG levels (N) and Gene expression in soleus of TGR5 knockout mice with and without fexaramine treatment. For bar graphs, vehicle is left bar, Fex is right bar. Data represent the mean±SD. Statistical analysis was performed with the Student's t test. *p<0.05, **p<0.01.
To address this possibility, HFD-fed TGR5 null mice were chronically treated with Fex (100 mg/kg/day PO for 5 weeks). […] In particular, the anti-lipogenic effects of Fex in the liver appear to require TGR5 activation, as key hepatic lipogenic genes and liver triglyceride content were not affected by Fex treatment (FIGS. 11L, 11M).

[3] = system: FXR-null mice; assay: HFD-fed FXR-null mice; type: in vivo; settings: 100 mg/kg 5 weeks
Experimental: Data represent the mean±SD. Statistical analysis was performed with the Student's t test. *p<0.05, **p<0.01.

[4] = system: gene and protein expression in BAT, ileum, liver and adipose tissues; assay: Tissue gene and protein expression in treated DIO mice; type: in vivo
Experimental: (§1) Mice were fed HFD for 14 weeks and then administered vehicle or fexaramine (100 mg/kg) daily by oral administration for 5 weeks with HFD. Data represent the mean±STD. Statistical analysis was performed with the Student's t test (*p<0.05, **p<0.01).
FIGS. 7A-7H show a comparative expression chart and bar charts illustrating that fexaramine increased endogenous FGF15 signaling and changes in BA composition. Mice were fed HFD for 14 weeks and then administered daily oral injections of vehicle or fexaramine (100 mg/kg) for 5 weeks with HFD. In the bar graphs, open bars represent vehicle treatment and solid bars represent fexaramine treatment, and data represent the mean±STD. Statistical analysis was performed with the Student's t test (*p<0.05, **p<0.01).
Mice were fed on HFD for 14 weeks and subsequently subjected to daily PO injection of vehicle or fexaramine (100 mg/kg) for 5 weeks with HFD. In the bar graphs, open bars are vehicle, solid bars of fexaramine, and data represent the mean±STD. Statistical analysis was performed with the Student's t test (*p<0.05, **p<0.01).
Mice were fed HFD for 14 weeks and then subjected to daily PO injection of vehicle (open bar in bar graphs) or fexaramine (100 mg/kg) (solid bar in bar graphs) for 5 weeks with HFD.

[5] = system: diet-induced obesity (DIO) mice; assay: Chronic oral treatment of diet-induced obesity (DIO) mice; type: in vivo; settings: for glucose tolerance and insulin sensitivity (GTT, ITT): DIO mice, PO 5 weeks
Experimental: FIGS. 2A-2G are graphs illustrating the reduction of diet-induced obesity and improvement in metabolic homeostasis with fexaramine Mice were fed a high fat diet (HFD) for 14 weeks and then administered daily oral injections of vehicle (open boxes) or fexaramine (100 mg/kg) (solid boxes) for 5 weeks with HFD. Data represent the mean±STD. Statistical analysis was performed with the Student's t test (*p<0.05, **p<0.01).
FIG. 4A is a line graph showing the effects of fexaramine at various dosage levels on the body weight of mice fed a HFD for 14 weeks and then administered daily oral injections of vehicle or fexaramine (10, 50 or 100 mg/kg) for 5 weeks with HFD. Data represent the mean±STD. Statistical analysis was performed with the Student's t test (*p<0.05, **p<0.01).
as §1
The physiological effects of fexaramine in established obesity (diet-induced obesity, DIO) models were evaluated. C57BL/6J mice were fed a diet of 60% fat for 14 weeks and then treated PO with vehicle or fexaramine (100 mg/kg) for 5 weeks.

COC(=O)/C=C/c1cccc(N(Cc2ccc(-c3ccc(N(C)C)cc3)cc2)C(=O)C2CCCCC2)c1 [fexaramine]
activation of TGR5 [1]: fails to activate TGR5
activation of TGR5 ([1]; listed as Fex): does not activate
FXR target genes in the ileum of TGR5 null mice [2]: induced multiple FXR target genes
core body temperature and metabolic rate in TGR5 null mice [2]: somewhat blunted increases
fasting glucose levels and glucose tolerance in TGR5 null mice [2]: moderate improvements
key hepatic lipogenic genes and liver triglyceride content in TGR5 null mice [2]: not affected
serum BA levels in TGR5 null mice [2]: lowered serum BA levels
weight gain or insulin sensitivity in TGR5 null mice [2]: no significant changes
Fex-induced changes in gene expression and improvements in metabolic homeostasis in FXR null mice [3]: abrogated
D102, downstream target of TGR5, in brown adipose tissue ([4]; BAT): induce
PKA activity ([4]; BAT): increased PKA activity
expression of ERRy, PGC-1α, PGC-1β and target genes in BAT ([4]; BAT): induction
phosphorylation level of p38 ([4]; BAT): increased the phosphorylation level of p38
FGF15 expression in intestine ([4]; RNA-Seq, ileal FXR target genes): dramatically up-regulated
OXPHOS activity, transcriptional changes in inguinal, gonadal and brown adipose depots ([4]; RNA-sequencing): selectively enhance OXPHOS activity only in BAT
HSL phosphorylation and serum levels of free fatty acids ([4]; adipose depots, serum): pronounced increase
serum catecholamine levels and β3-adrenergic receptor expression ([4]; chronic treatment): increased serum catecholamine levels and β3-adrenergic receptor expression
S6K phosphorylation (mTORC1 pathway) ([4]; gonadal WAT): reduced S6K phosphorylation
levels of IKK-ε and TANK-binding kinase 1 (TBK1) ([4]; gonadal adipose tissue): reduced levels
expression of brown fat-like signature genes ([4]; inguinal adipose tissue): increased the expression
respiratory capacity in the stromal vascular fraction ([4]; inguinal adipose tissue): increased respiratory capacity
abundance of multi-locular, UCP1-expressing adipocytes ([4]; inguinal adipose tissue, immunohistochemistry): substantial increase
expression of mucosal defense genes Occludin and Muc2 ([4]; intestine): increased expression
expression of CYP8B1 and CYP27A1 ([4]; liver): not affected
expression of liver FXR target genes SHP and BSEP ([4]; liver): not altered
hepatic CYP7A1 expression, mRNA and protein level ([4]; liver): significantly repressed
hepatic expression of gluconeogenic and lipogenic genes ([4]; liver): reduced hepatic expression
circulating FGF15 ([4]; serum): increase in circulating FGF15
ambulatory counts ([5]; 100 mg/kg PO 5 weeks): more active than control mice
intestinal toxicity (histology of ileum and colon) ([5]; 100 mg/kg PO 5 weeks): no signs of intestinal toxicity
overall fat mass (MRI) ([5]; 100 mg/kg PO 5 weeks): reduced overall fat mass
respiratory exchange ratio ([5]; 100 mg/kg PO 5 weeks): No changes
serum lactate levels ([5]; 100 mg/kg PO 5 weeks): significantly decreased
serum levels of inflammatory cytokines TNFα, IL-1α, IL-1β, IL-17 and MCP-1 ([5]; 100 mg/kg PO 5 weeks): markedly decreased
wet weights of subcutaneous (inguinal) and visceral (gonadal and mesenteric) adipose depots ([5]; 100 mg/kg PO 5 weeks): significant reductions
serum lactate levels ([5]; 100 mg/kg PO 5 weeks, listed as Fex): significantly reduced
prevention of weight gain, dose dependence ([5]; 10, 50 or 100 mg/kg PO 5 weeks): dose-dependent manner
glucose tolerance and insulin sensitivity (GTT, ITT) [5]: improved glucose clearance; also recorded: improved insulin sensitivity
glucose tolerance and insulin sensitivity (GTT, ITT) ([5]; listed as Fex): dose-dependent improvements
weight gain ([5]; HFD 14 weeks, then 100 mg/kg PO 5 weeks): prevented weight gain
cross-sectional area of adipocytes in visceral depots (gonadal, mesenteric) ([5]; chronic treatment): markedly reduced
weight gain at the highest dose ([5]; highest dose): almost completely abrogated
accumulation of lipid vesicles in brown adipose tissue (BAT) ([5]; histology): markedly reduced
hepatic triglycerides ([5]; liver): marked decrease
lipid droplets in liver tissue (histology) ([5]; liver): reduction in lipid droplets
serum alanine aminotransferase (ALT) levels ([5]; serum): decreased
glucose, insulin, leptin, cholesterol and resistin levels ([5]; serum, 100 mg/kg PO 5 weeks): reduced glucose, insulin, leptin, cholesterol, and resistin levels
food intake ([5]; versus vehicle-treated control mice): not attributable to difference in food intake
carbon dioxide production (VCO2) ([5]; weight-matched DIO mice): exhaled more carbon dioxide
oxygen consumption (VO2) ([5]; weight-matched DIO mice): consistently higher oxygen consumption
